In publication PMC7489537, “Ser-653-Asn substitution in the acetohydroxyacid synthase gene confers resistance in weedy rice to imidazolinone herbicides in Malaysia” (PLoS ONE, 2020):
Changes are numbered by the printed parent chain.

Tests used:
[1] = molecular target: T1, AHAS (acetohydroxyacid synthase), MR219 (Oryza sativa, UniProt Q6K2E8, P67T); assay: AHAS inhibition assay, colorimetric acetoin at […] nm; format: biochemical; settings: cultivar MR219; partially purified leaf extract; 60 min incubation; read-out: I50
T1 construct: gene ALS1; native enzyme, partially purified leaf extract; natural Thr93, Ser653, Val669 (Arabidopsis numbering)
T1 sequence (Q6K2E8 44-644 P67T): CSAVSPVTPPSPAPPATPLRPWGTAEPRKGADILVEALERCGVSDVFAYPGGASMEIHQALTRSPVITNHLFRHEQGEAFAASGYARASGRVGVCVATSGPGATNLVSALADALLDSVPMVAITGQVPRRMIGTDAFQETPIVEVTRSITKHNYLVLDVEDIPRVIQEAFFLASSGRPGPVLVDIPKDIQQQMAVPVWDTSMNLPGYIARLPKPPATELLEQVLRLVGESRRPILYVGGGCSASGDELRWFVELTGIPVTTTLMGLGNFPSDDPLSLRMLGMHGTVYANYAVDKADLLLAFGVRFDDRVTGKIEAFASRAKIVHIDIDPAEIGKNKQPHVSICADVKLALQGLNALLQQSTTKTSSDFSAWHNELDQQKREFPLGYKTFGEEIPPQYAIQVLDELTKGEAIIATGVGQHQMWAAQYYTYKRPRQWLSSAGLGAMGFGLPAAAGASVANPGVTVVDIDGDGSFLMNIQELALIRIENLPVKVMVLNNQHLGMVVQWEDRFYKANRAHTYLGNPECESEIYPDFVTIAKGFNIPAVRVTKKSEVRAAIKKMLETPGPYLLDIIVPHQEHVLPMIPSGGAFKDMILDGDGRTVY

[2] = molecular target: T2, AHAS (acetohydroxyacid synthase), weedy rice (Oryza sativa, UniProt Q6K2E8, S627N/V643M); assay: as above; format: biochemical; settings: susceptible (S) population; partially purified leaf extract; 60 min incubation; read-out: I50
T2 construct: gene ALS1; native enzyme, partially purified leaf extract; Pro93 and Met669 (Arabidopsis numbering); resistant weedy rice allele (S653N) deposited as GenBank MN268688
T2 sequence (Q6K2E8 44-644 S627N/V643M): T1 sequence (Q6K2E8 44-644 P67T) with T24P, S584N, V600M

Cc1cnc(C2=NC(=O)C(C)(C(C)C)N2)c(C(=O)O)c1 (stereo not shown) [imazapic]
IC50 [1]: 1.7 nM
IC50 [2]: 1.2 nM

CC(C)C1(C)N=C(c2ncccc2C(=O)O)NC1=O (stereo not shown) [imazapyr]
IC50 [1]: 1.7 nM
IC50 [2]: 2.5 nM
